Test results published in US20210379063A1, “ORAL AMINODIHYDROPHTHALAZINEDIONE COMPOSITIONS AND THEIR USE IN THE TREATMENT OF NON-VIRAL HEPATITIS” (Immunopharma Plus D.O.O., priority 2018, published 2021).
Where two headings read alike, the source gives them in different places.

Experiments:
[1] = test system: reparative liver regeneration after partial hepatectomy
Excerpt: Reparative liver regeneration was caused by the removal of ⅔ mass of the organ—partial hepatectomy by G. M. Higgis, R. M. Anderson.

[2] = test system: hepatitis caused by pesticides
Excerpt: Clinically, this is manifested by pallor, fatigue, shortness of breath on exertion, hypoxia of the organs, respectively, and of the organism as a whole. The lipid peroxidation that develops at the same time causes tissue damage, and in response, macrophages infiltrate and generate oxygen radicals and pro-inflammatory cytokines (TNF, IL, etc.), thereby contributing their destructive potential to the development of the pathological process.

[3] = test system: acute experimental hepatitis, tetrachloromethane (CCL4)
Procedure: Acute experimental hepatitis that develops with the introduction of tetrachloromethane (CCL4) is a classic model for studying the mechanisms of reparative regeneration of the liver after exposure to various chemical toxicants.
The experiments were carried out on male Wistar rats weighing 200-220 g, in accordance with the recommendations of the international ethics committees on the humane treatment of laboratory animals (EU Council Directive 86/609 EEC dated Nov. 24, 1986). Carbon tetrachloride (CCL4), was administered to the animals intraperitoneally once at a dose of 50 mg/kg of body weight. […] The animals were sacrificed on the 3rd, 7th day after the simulation of toxic hepatitis.

[4] = test system: toxic hepatitis caused by Acetaminophen; conditions: for ALT / AST / AST/ALT / GTP / Biochemiluminescence of blood plasma (BCL, quant): Acetaminophen + Tamerit
Procedure: The experiment was carried out on 45 adult male outbred white rats weighing 288.5±12.9 g, in accordance with the recommendations of the international ethics committees on the humane treatment of laboratory animals (EU Council Directive 86/609 EEC dated Nov. 24, 1986). To create an experimental model, an aqueous solution of Acetaminophen was administered intragastrically using a probe at a dosage of 110 mg/kg of body weight, which is about 2 times higher than the maximum allowable daily dose in humans. […] The drug was administered intragastrically, using a probe, in the form of an aqueous solution

macrophages = conditions: cited from earlier work
[5] = CCl4 3rd day + Tamerit 2 mg/kg intramuscularly
[6] = CCl4 7th day + Tamerit 2 mg/kg intramuscularly

## Nc1cccc2c(=O)[n-][nH]c(=O)c12.[Na+] [Tamerit, aminodihydrophthalazinedione sodium]
[1]; hepatectomy 4 hours + Tamerit
  Mitotic index, %: 2 ± 0.8 %
  Nuclear cytoplasmic index: 0.40 ± 0.005
  Number of binuclear cells, %: 16.6 ± 1.69%
  The size of the nucleus of hepatocytes, μm: 8.0 ± 0.26 μm
[1]; hepatectomy 17 hours + Tamerit
  Mitotic index, %: 5.5 ± 1.3 %
  Nuclear cytoplasmic index: 0.319 ± 0.01
  Number of binuclear cells, %: 29.83 ± 2.5 %
  The size of the nucleus of hepatocytes, μm: 7.67 ± 0.28 μm
[1]; regenerating liver
  increase of the number of hepatocytes that divide by mitosis: by an order of magnitude
[2]; after the end of treatment, AST-80, ALT-98 before
  AST and ALT: within normal limits
[2]; at discharge after enteric-coated 100 mg tablets, 89 before
  Hemoglobin: 120
[2]; third day from the start of treatment
  patient's condition: improved
[3]; [5]
  ALT, U/L: 9.1 ± 1.6 U/L
  AST, U/L: 10.0 ± 2.0 U/L
  BCL, quant: 186.0 ± 7.0 quant
[3]; [6]
  ALT, U/L: 7.12 ± 0.20 U/L
  AST, U/L: 8.53 ± 0.13 U/L
  BCL, quant: 171 ± 18 quant
[3]; early stages of toxic hepatitis by tetrachloromethane
  effect on inflammatory reaction in toxic hepatitis: reduces the severity of the inflammatory reaction
[4]; 3rd day
  ALT: 17.45 ± 1.3 U/L
  AST: 23.61 ± 1.2 U/L
  AST/ALT: 1.35 ± 0.03
  GTP: 35.8 ± 1.2 U/L
[4]; 5th day
  ALT: 12.2 ± 0.9 U/L
  AST: 15.0 ± 1.0 U/L
  AST/ALT: 1.24 ± 0.01
  GTP: 33.8 ± 0.9 U/L
[4]; 7th day
  ALT: 12.0 ± 0.8 U/L
  AST: 16.01 ± 2.0 U/L
  AST/ALT: 1.33 ± 0.02
  GTP: 30.8 ± 1.8 U/L
[4]; 12th day
  ALT: 18.0 ± 1.8 U/L
  AST: 22.1 ± 1.5 U/L
  AST/ALT: 1.22 ± 0.04
  GTP: 29.4 ± 1.5 U/L
[4]; 3 days
  Biochemiluminescence of blood plasma (BCL, quant): 213.0 ± 4.0 quant
[4]; 12 days
  Biochemiluminescence of blood plasma (BCL, quant): 215.6 ± 5.0 quant
[4]; rats treated with Tamerit intragastrically
  signs of toxic hepatitis: less pronounced
macrophages; acute inflammatory diseases
  duration of reversible suppression of macrophage hyperactivity: 10 to 12 h
macrophages
  excretion: rapidly excreted
  toxicity: extremely low toxicity
other
  state of a solution containing 10 mM: supersaturated solution
